Source: EP0521692A2, “Inhibition of tumor cell metastasis potential and invasiveness by chemically-defined oligosaccharides, their derivatives, mimetics and antibodies directed to them” (The Biomembrane Institute, priority 1991, dated 1993)

How the values were obtained:
[1] = test system: BL6 clone of B16 melanoma cell line; experiment: Lung colony formation after i.v. injection of BL6 cells preincubated with oligosaccharide; type: in vivo, C57/BL mice; settings: for reductions of metastatic colonies in lung: BL6 cells preincubated with the sugar, then intravenous injection, 0.1 M, 37°C, 10 minutes in the majority of experiments; for total colony number reduced to % of control value: second independent series (Figure 1): preincubation with 0.1 M, 2 x 10^4 cells i.v., counted at 21 days
Experimental: The highly metastatic BL6 clone of B16 melanoma cell line was obtained originally from Dr. Jean Starkey (Montana State Univ., Bozeman, MT), and clones were reselected in syngeneic C57/BL mice according to their metastatic potential. C57/BL mice were maintained in plastic cages under filtered air atmosphere and provided with water and food pellets ad lib. Cells were cultured in RPMI 1640 supplemented with 2 mM glutamine and 10% fetal calf serum (FCS), and detached with phosphate buffered saline (PBS) containing 2 mM EDTA. Viability was tested by trypan blue exclusion test.
A suspension of BL6 cells (1-3 x 10⁶ cells/ml RPMI 1640 medium) was prepared and aliquots were incubated in the presence or absence of various oligosaccharides at various concentrations, at 37°C for 5-10 minutes. Following incubation, typically, 3 x 10⁴ or 2 x 10⁴ cells (with or without oligosaccharide pretreatment) per 200 µl were injected via tail vein into 8-week-old female mice. After 18-21 days, mice were killed, lungs were fixed in 10% formaldehyde in PBS (pH 7.4), and tumor cell colonies were counted under a dissecting microscope, thus providing background values of metastatic melanoma colony number in lung under these conditions. Data on number and size of colonies were statistically treated by the analysis of variance (ANOVA) procedure. Colonies with a diameter of 1 mm or greater were considered large-size and those with a diameter less than 1 mm were considered small-size.
(§1) For one experiment, BL6 cells were incubated with various concentrations of lactose, lacto-N-tetrose (Galβ1→3GlcNAcβl→3Galβ1→4GLc), methyl β-D-lactoside, or phenyl β-D-thiolactoside for various durations. In the majority of experiments, a concentration of 0.1 M was used and cells were incubated at 37°C for 10 minutes, separated from sugar-containing medium by mild centrifugation at 400 x g for 10 minutes, resuspended in RPMI 1640, and injected (3 x 10⁴ cells in 0.2 ml suspension) via tail vein. For some experiments, 2 x 10⁴ cells were injected and colonies were counted at 21 days. Viability and cell growth ability of BL6 cells after incubation in various sugar solutions were tested by trypan blue exclusion test, and by plating in RPMI 1640 culture under normal conditions in vitro, as well as by subcutaneous inoculation in age-matched C57/BL mice in order to test tumor growth.

BL6 cells = experiment: In vitro cell growth and thymidine incorporation after incubation with sugar; type: cell-based, mouse
Experimental: as §1

B16 melanoma cells = experiment: Lung colony formation, oligosaccharide injected i.p. before i.v. inoculation of tumor cells; type: in vivo, C57/BL mice; settings: 1 ml of 0.25 M or 0.5 M i.p., 10 minutes before i.v. B16 melanoma cells; colonies counted 19 days later (Figure 2)
Experimental: Figure 2 graphically illustrates the effect of prior administration of methyl β-D-lactoside on the number and size of lung colony deposits of BL6 cells. Methyl β-D-lactoside (1 ml dosage) was injected intraperitoneally into C57/BL mice. After 10 minutes, B16 melanoma cells were injected intravenously. Lung colonies were counted and sized at 19 days. Group A represents control animals (not administered methyl β-D-lactoside) and groups B and C represent animals injected with 0.25 M and 0.5 M methyl β-D-lactoside, respectively. For each group, column 1 represents the total number of colonies, column 2 the number of colonies with diameter > 1 mm, and column 3 the number of colonies with diameter < 1 mm. Number of experiments is expressed as "n".
In a separate experiment, the effect of methyl β-D-lactoside on melanoma cell metastasis was determined after administration of the oligosaccharide, followed by inoculation with tumor cells. Specifically, a one ml dosage of methyl β-D-lactoside (at a concentration of 0.25 M or 0.5 M) was injected intraperitoneally in mice. After 10 minutes, B16 melanoma cells were injected intravenously. Lung colonies were counted 19 days later.

[2] = test system: melanoma cell (BL6) adhesion on endothelial cells (HuVEC); experiment: Melanoma cell adhesion on endothelial cells; type: cell-based, mouse; settings: Figure 5
From the text: (§2) Figure 5 graphically illustrates the melanoma cell (BL6) adhesion on LacCer (Panel A) and on endothelial cells (HuVEC) (Panel B) are inhibited by LacCer and GM3.
GM3 interacts with LacCer, which is highly expressed on endothelial cells. The order of adhesion of the B16 variants onto LacCer-coated solid phase or onto endothelial cells was also in the same order as their metastatic potential. In contrast, integrin-dependent adhesion of the B16 variants was approximately equal for BL6, F10, and F1 (see Figure 4).

GMP-140 = target: T1, GMP-140 (Homo sapiens, UniProt P16109); experiment: Binding of platelets to fluorescent polystyrene beads coated with GSL (flow cytometry); settings: for Binding index, Ratio (Activated/ Non-activated): ratio of binding index of activated to non-activated platelets; for Binding index, Activated platelets: thrombin-activated platelets, GSL-coated sulfate-containing polystyrene beads, MFI relative to non-GSL-coated beads, means of four experiments
T1 sequence (P16109 42-830): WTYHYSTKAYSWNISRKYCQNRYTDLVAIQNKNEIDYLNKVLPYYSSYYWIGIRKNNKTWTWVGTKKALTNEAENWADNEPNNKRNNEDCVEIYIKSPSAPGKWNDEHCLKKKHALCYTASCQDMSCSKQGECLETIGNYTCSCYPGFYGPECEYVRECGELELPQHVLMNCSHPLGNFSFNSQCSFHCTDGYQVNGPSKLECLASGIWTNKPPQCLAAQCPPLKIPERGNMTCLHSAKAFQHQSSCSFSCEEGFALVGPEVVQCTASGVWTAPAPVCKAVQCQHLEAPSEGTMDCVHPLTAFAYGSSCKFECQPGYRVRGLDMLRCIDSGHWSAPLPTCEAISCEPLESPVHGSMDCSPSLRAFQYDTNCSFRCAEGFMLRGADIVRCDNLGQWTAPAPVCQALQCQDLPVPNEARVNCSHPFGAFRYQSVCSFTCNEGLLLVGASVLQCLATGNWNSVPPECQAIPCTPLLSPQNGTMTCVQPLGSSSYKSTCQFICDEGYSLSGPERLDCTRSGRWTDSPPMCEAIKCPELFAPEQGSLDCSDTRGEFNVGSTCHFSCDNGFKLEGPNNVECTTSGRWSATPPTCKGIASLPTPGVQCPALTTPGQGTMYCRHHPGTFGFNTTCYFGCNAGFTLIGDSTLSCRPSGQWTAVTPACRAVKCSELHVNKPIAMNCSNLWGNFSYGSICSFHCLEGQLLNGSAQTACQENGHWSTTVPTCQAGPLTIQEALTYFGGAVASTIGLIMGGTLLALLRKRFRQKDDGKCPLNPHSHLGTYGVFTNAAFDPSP
Experimental: Fluorescent plastic (e.g. polystyrene) beads (diameter ≈ 0.5 µm) are coated with GSL. GSLs are known to be strongly adsorbed on such beads, which allows construction of fluorescent probes containing specific GSLs. Platelets (activated or non-activated) are incubated with such GSL-coated beads, followed by determination of platelet fluorescence intensity by flow cytometry.
Platelets were isolated from"platelet-rich plasma"obtained from the Oregon Red Cross (Portland, OR), and contaminating red blood cells were removed by centrifugation at 80xg for 10 min. Platelets were centrifuged at 300xg for 10 min, and suspended in Tyrode's buffer (pH 6.5) containing 22 mM citrate buffer with 0.35% bovine serum albumin (BSA). Platelet suspension (1x10⁸/ml) was incubated (pH 7.2, 37°C, 5 min) after addition of thrombin (final concentration 1 U/ml). The mixture was then incubated at 37°C for 10 min without stirring. Thrombin-activated platelets were fixed with an equal volume of 2% formaldehyde in phosphate-buffered saline (PBS), pH 7.2, and washed 2x with PBS containing 1% BSA.
Activated and non-activated platelets were fixed with paraformaldehyde in Ca²⁺-free PBS, pH 7.2, washed 2x with Ca^2a+-containing PBS with 1% BSA, resuspended in CA^2a+-PBS with 1% BSA and 0.1% azide, and the number of platelets adjusted to ≈1x10⁹/ml. The cell suspension was stored at 4°C and the binding assay performed within 24 hr.
Fluorescent polystyrene latex beads were obtained from Molecular Probe, Inc., Eugene, OR. They were yellow-green fluorescent beads with a sulfate group at the surface, diameter ≈0.5 µm (actually 0.486 µm). 1x10⁹ beads in 30 µl ETOH were added to 10 µg of GSL solution in 200 µl C=M, mixed well, and dried under an N₂ stream. The residue was resuspended in 200 µl ethanol, sonicated briefly, and dried under an N₂ stream. […]
20 µl of platelet (non-activated or activated) suspension ... paraformaldehyde-fixed -- containing ≈2x10⁷ platelets was mixed with 10 µl of fluorescent GSL-coated beads -- containing ≈2x10⁷ beads, mixed well, […] allowed to stand at 37°C for 30 min. The platelet suspension was mixed with 200 µl Ca²⁺-PBS and analyzed by flow cytometry (EPICS Profile, Coulter Cytometry, Hialeath, FL).
Flow cytometric analyses of platelets alone and beads alone were performed for a gating set to include most signals produced by platelets by excluding signals produced by free beads. The binding index (BI) was calculated as mean fluorescence intensity (MFI) of platelets incubated with fluorescent GSL-coated beads, divided by MFI of platelets incubated with fluorescent non-GSL-coated (control) beads. […]

[3] = test system: melanoma cell (BL6) adhesion on LacCer; experiment: Melanoma cell adhesion on LacCer-coated solid phase; type: cell-based, mouse; settings: Figure 5, Panel A
From the text: Figure 4 graphically illustrates that melanoma cell adhesion on LacCer is based on GM3-LacCer interaction. The order of metastatic potential is BL6>F10>F1>>WA4.
as §2

Binding index, Ratio (Activated/ Non-activated) (GMP-140)	Binding index, Activated platelets (GMP-140)	Compound	reductions of metastatic colonies in lung [1]	total colony number reduced to % of control value [1]	effect on cell number increase (BL6 cells)	effect on thymidine incorporation (BL6 cells)	further results
		OC[C@H]1O[C@@H](O[C@H]2[C@H](O)[C@@H](O)C(O)O[C@@H]2CO)[C@H](O)[C@@H](O)[C@H]1O (stereo partly drawn) [Lactose]	26%				
		CC(=O)N[C@H]1[C@H](O[C@H]2[C@@H](O)[C@@H](CO)O[C@@H](O[C@H]3[C@H](O)[C@@H](O)C(O)O[C@@H]3CO)[C@@H]2O)O[C@H](CO)[C@@H](O)[C@@H]1O[C@@H]1O[C@H](CO)[C@H](O)[C@H](O)[C@H]1O (stereo partly drawn) [lacto-N-tetrose, Galβ1→3GlcNAcβl→3Galβl→4Glc]	36%				
		CO[C@@H]1O[C@H](CO)[C@@H](O[C@@H]2O[C@H](CO)[C@H](O)[C@H](O)[C@H]2O)[C@H](O)[C@H]1O [methyl β-D-lactoside]		35%	slight in vitro stimulatory effect	slight in vitro stimulatory effect	reduction of metastatic lung colony number compared to control ([1]; BL6 cells treated with 0.005 M): 8%; reduction of metastatic lung colony number compared to control ([1]; BL6 cells treated with 0.01 M): 16%; reduction of metastatic lung colony number compared to control ([1]; BL6 cells treated with 0.1 M): 43%; lung metastatic colony formation (B16 melanoma cells): significant reduction; B16 melanoma adhesion on endothelial cells [2]: inhibited
		OC[C@H]1O[C@@H](O[C@H]2[C@H](O)[C@@H](O)[C@H](Sc3ccccc3)O[C@@H]2CO)[C@H](O)[C@@H](O)[C@H]1O [phenyl β-D-thiolactoside]		50%	slight in vitro stimulatory effect	slight in vitro stimulatory effect	
0.7 ± 0.2	0.8 ± 0.2	NeuAcα2→3Galβ1→4GlcNAcβ1→3Galβ1→R [SPG, reference compound]					
0.7 ± 0.5	1.0 ± 0.1	NeuAcα2→3Galβl→4Glcβl→Cer [GM3]					melanoma cell (BL6) adhesion on LacCer [3]: inhibited
